In patent US11866451B2, “Salts and crystalline forms of a PD-1/PD-L1 inhibitor” (Incyte Corporation, priority 2019, dated 2024):
Values belong to the molecule of their own block, whether it stands above or below them.

Key:
Assay type in all cases: physicochemical
[1] = Solubility measurement in various solvents at 25° C. (Procedure 1); details: thermodynamic from solid
Method: (§1) The solubility of Compound 1 Di-Hydrochloric Acid Salt Form I was measured according to Procedure 1 for solubility in 25° C. (Table 5) and Procedure 2 for 50° C. [table] [table]

[2] = Solubility measurement in various solvents at 50° C. (Procedure 2)
Method: as §1

[3] = Competitive slurry experiments, stability relationship of polymorphs in 10% water/acetone
Method: To evaluate the transformation of Compound 1 Di-Hydrochloric Acid Salt solid forms, competitive slurry experiments at 25±1° C. and 60±1° C. in the solvent of 10% water/acetone were performed with a mixture of eight polymorphs (Form I, and Form III through Form IX) as described in Table 23 and Table 24. [table] [table]

[4] = 2% water in acetone, organic solvent or mixture
[5] = 2% water in acetonitrile, organic solvent or mixture
[6] = 2-methoxyethanol, organic solvent or mixture
[7] = 5% water in acetone, organic solvent or mixture
[8] = 5% water in acetonitrile, organic solvent or mixture
[9] = 10% water in acetone, organic solvent or mixture
[10] = 10% water in acetonitrile, organic solvent or mixture
[11] = DMF, organic solvent or mixture
[12] = DMSO, organic solvent or mixture
[13] = EtOH, organic solvent or mixture
[14] = IPA, organic solvent or mixture
[15] = MeCN, organic solvent or mixture
[16] = acetone, organic solvent or mixture
[17] = chloroform, organic solvent or mixture

solubility [1, 4]: 50 µg/mL | solubility [1, 5]: 10 µg/mL | solubility [1, 6]: 16900 µg/mL | solubility [1, 7]: 320 µg/mL | solubility [1, 8]: 1040 µg/mL | solubility [1, 9]: 2300 µg/mL | solubility [1, 10]: 3640 µg/mL | solubility [1, 11]: 2980 µg/mL | solubility [1, 12]: > 50000 µg/mL | solubility [1, 13]: 390 µg/mL | solubility [1, 14]: 650 µg/mL | solubility ([1]; IPAc, organic solvent or mixture): 10 µg/mL | solubility [1, 15]: 20 µg/mL | solubility ([1]; THF, organic solvent or mixture): 50 µg/mL | solubility [1, 16]: 10 µg/mL | solubility [1, 17]: > 50000 µg/mL | solubility ([1]; organic solvent or mixture, 1-Propanol, solid phase Form V): 710 µg/mL | solubility ([1]; organic solvent or mixture, Methanol, solid phase Form III): 18800 µg/mL | solubility ([1]; organic solvent or mixture, n-BuOH, solid phase Form IV): 460 µg/mL | solubility ([1]; Water, solid phase Form VI): 12900 µg/mL | solubility ([2]; 1,4-dioxane, organic solvent or mixture): 10 µg/mL | solubility ([2]; 1-propanol, organic solvent or mixture): 1120 µg/mL | solubility [2, 4]: 110 µg/mL | solubility [2, 5]: 10 µg/mL | solubility [2, 6]: 28300 µg/mL | solubility [2, 7]: 560 µg/mL | solubility [2, 8]: 1210 µg/mL | solubility [2, 9]: 5710 µg/mL | solubility [2, 10]: 6610 µg/mL | solubility [2, 11]: 5480 µg/mL | solubility [2, 12]: > 50000 µg/mL | solubility [2, 13]: 1100 µg/mL | solubility [2, 14]: 980 µg/mL | solubility ([2]; MEK, organic solvent or mixture): 150 µg/mL | solubility ([2]; MIBK, organic solvent or mixture): 10 µg/mL | solubility [2, 15]: 10 µg/mL | solubility ([2]; THF, organic solvent or mixture, thermodynamic from solid): 40 µg/mL | solubility [2, 16]: 10 µg/mL | solubility [2, 17]: > 50000 µg/mL | solubility ([2]; methanol, organic solvent or mixture, thermodynamic from solid): 22100 µg/mL | solubility ([2]; organic solvent or mixture, thermodynamic from solid, n-BuOH, solid phase Form IV): 420 µg/mL | solubility ([2]; thermodynamic from solid, Water, solid phase Form VI): 14800 µg/mL | Relative stability of polymorphic forms ([3]; 10% water/acetone at 25 and 60° C., competitive slurry): most stable polymorphic form
Compound: Cl.Cl.Cn1c(C(=O)Nc2cccc(-c3cccc(NC(=O)c4nc5c(n4C)CCN(CCC46CCC(C(=O)O)(CC4)C6)C5)c3Cl)c2Cl)nc2c1CCN(CCC13CCC(C(=O)O)(CC1)C3)C2 [4,4′-(((((2,2′-dichloro-[1,1′-biphenyl]-3,3′-diyl)bis(azanediyl))bis(carbonyl))bis(1-methyl-1,4,6,7-tetrahydro-5H-imidazo[4,5-c]pyridine-2,5-diyl))bis(ethane-2,1-diyl))bis(bicyclo[2.2.1]heptane-1-carboxylic acid) di-hydrochloric acid salt]

Polymorph transformation in competitive slurry (XRPD) ([3]; mixture of polymorphs stirred in 10% water/acetone at 25±° C. for 20 hours and at 60±° C. for 2 h): converted to Form I
Compound: Cl.Cl.Cn1c(C(=O)Nc2cccc(-c3cccc(NC(=O)c4nc5c(n4C)CCN(CCC46CCC(C(=O)O)(CC4)C6)C5)c3Cl)c2Cl)nc2c1CCN(CCC13CCC(C(=O)O)(CC1)C3)C2 [Form III, 4,4′-(((((2,2′-dichloro-[1,1′-biphenyl]-3,3′-diyl)bis(azanediyl))bis(carbonyl))bis(1-methyl-1,4,6,7-tetrahydro-5H-imidazo[4,5-c]pyridine-2,5-diyl))bis(ethane-2,1-diyl))bis(bicyclo[2.2.1]heptane-1-carboxylic acid) di-hydrochloric acid salt]
